Structures are written as SMILES.

Consider 3 compounds from patent publication US5177085A, “Dihydro-isoquinoline derivatives, processes for their production, pharmaceutical compositions containing them, and their use in treating asthma” (Sandoz Ltd., priority 1990, dated 1993).

Assay [1] relates to PAF-induced airways hyperreactivity in guinea-pigs. Put plainly: Suppression of airways hyperreactivity in PAF-treated animals (Example B). The following applies: Cavia porcellus, iv; headed Example B (PAF-treated guinea-pigs); i.v.; pure or substantially pure [3S] enantiomer for Example 1; read-out: ID50 (dose required to increase relaxation by 50%). It counts as in vivo. As to the method: Guinea pigs (Dunkin-Hartley, male, 400-600g) are anesthetized with phenobarbital (100-mg/kg i.p.) and pentobarbital (30 mg/kg i.p.) and paralyzed with gallamine (10 mg/kg i.m.). Animals are ventilated via a tracheal cannula (10 ml/kg, 1 Hz) with a mixture of air and oxygen (1:1 v/v). Blood pressure and heart rate are recorded at the carotid artery. Ventilation is monitored by a Fleisch flow transducer in line with the inspiratory circuit. When making measurements of flow, coincident pressure changes in the thorax are monitored directly via an intrathoracic trochar, permitting display of differential pressure relative to the trachea. From this information in relation to flow and differential pressure, resistance [R1 ] and compliance [Ddyn ] are calculated using a digital respiratory analyzer for each respiratory cycle.
Guinea-pigs are anesthetized and prepared for recording of lung function as described under Example A.2. above. […] Following infusion of PAF (platelet activating factor) over 1 hr.

Assay [2] deals with guinea-pig tracheal ring preparations. Put plainly: Relaxation of guinea-pig tracheal smooth muscle in vitro (Example A.1.a). It counts as cell-based, Guinea-pig (Dunkin-Hartley). The conditions noted are these: Cavia porcellus; guinea-pig tracheal rings, spontaneous tone, 37° C., cumulative; pure or substantially pure [3S] enantiomer for Example 1; read-out: IC50 (concentration required to increase relaxation by 50%). As to the method:
(§1) Guinea-pigs (Dunkin-Hartley, 350-500gm) are killed with Pentothal (100mg/kg i.p.). The trachea is dissected and a section 2-3cm in length excised. The trachea is transected in the transverse plane at alternate cartilage plates so as to give rings of tissue 3-5mm in depth. The proximal and distal rings are discarded. Individual rings are mounted vertically on stainless steel supports, one of which is fixed at the base of an organ bathm the other being attached to an isometric transducer. The rings are bathed in Krebs solution composition mM: NaHCo3 25, NaCl 113, KCl 4.7, MgSO4.7H2 O 1.2, KH2 PO4 1.2, CaCl2 2.5, Glucose 11.7) at 37° C. and gassed with O2 /CO2 (95:5,v/v). Rings prepared in this manner, preloaded with 1 g, generate spontaneous tone and, after a period of equilibration (45-60 min.), relax consistently on addition of spasmolytic drugs. To ascertain spasmolytic activity, test substances are dissolved in physiological saline and added in increasign quantities to the organ bath at 5 min. intervals to provide a cumulative concentration-effect curve.

The subject of assay [3] is human bronchus ring preparations. Put plainly: Relaxation of human bronchus in vitro (Example A.1.b). It counts as cell-based. The conditions noted are these: human bronchus rings; pure or substantially pure [3S] enantiomer for Example 1. As to the method:
as §1
The test is performed analogously to 1. a above but employing rings of human bronchus dissected from lung that has been resected for carcinoma. Dissected material is used immediately or first immersed in total calf serum containing DMSO ([…]), slowly frozen to -70° C. and stored in liquid N2 at -190° C. […]

In the case of `COc1cc(OC)cc(C2=N[C@H](CO)Cc3cc(OC)c(OC)cc32)c1` [Example 1, [3S] 3,4-dihydro-6,7-dimethoxy-1-(3,5-dimethoxyphenyl)-3-hydroxymethyl-isoquinoline], the ED50 in assay [1] was around 0.05 mg/kg. Further, the IC50 is 0.18 µM in assay [2] and 1.9 µM in assay [3].

With `Cn1c(=O)c2[nH]cnc2n(C)c1=O` [aminophylline], the IC50 in assay [2] stood at 130 µM; in assay [3] it was 158 µM.

As to `Cn1c(=O)c2[nH]cnc2n(C)c1=O` [theophyline], in assay [1], the ED50 amounted to 3 mg/kg.
